Values after ≈ are worked out from the molar mass of the structure shown.
Experiments:
[1] = target: 11-beta-hydroxysteroid dehydrogenase 1 (Rattus norvegicus, UniProt P16232); test: Inhibition of rat 11betaHSD1 assessed as reduction of cortisone to cortisol by ELISA
[2] = target: Cytochrome P450 3A4 (Homo sapiens, UniProt P08684); test: Inhibition of CYP3A4 (unknown origin); type: ADME
[3] = Cmax in rat at 50 mg/kg, po; type: ADME, organism-based; set-up: dose 50 mg/kg, route oral; conditions: in vivo
[4] = Half life in iv dosed rat; type: ADME, organism-based; conditions: in vivo
[5] = Clearance in human liver microsomes at 1 uM; type: ADME; conditions: read-out: CLH
[6] = Oral bioavailability in rat; type: ADME, organism-based; conditions: in vivo
[7] = Effective permeability of the compound at pH 6.5 by PAMPA; type: physicochemical; conditions: read-out: Peff
[8] = test system: Mus musculus; test: Reduction in plasma cortisol level in db/db mouse at 150 mg/kg, po after 30 mins […] measured after 5.5 hrs relative to control; type: functional
[9] = Kinetic aqueous solubility of the compound at pH 6.5; type: physicochemical; conditions: read-out: Kinetic_solubility
[10] = target: hERG (KCNH2) (Homo sapiens, UniProt Q12809); test: Inhibition of human ERG
hERG (KCNH2), sequence (Q12809 whole entry): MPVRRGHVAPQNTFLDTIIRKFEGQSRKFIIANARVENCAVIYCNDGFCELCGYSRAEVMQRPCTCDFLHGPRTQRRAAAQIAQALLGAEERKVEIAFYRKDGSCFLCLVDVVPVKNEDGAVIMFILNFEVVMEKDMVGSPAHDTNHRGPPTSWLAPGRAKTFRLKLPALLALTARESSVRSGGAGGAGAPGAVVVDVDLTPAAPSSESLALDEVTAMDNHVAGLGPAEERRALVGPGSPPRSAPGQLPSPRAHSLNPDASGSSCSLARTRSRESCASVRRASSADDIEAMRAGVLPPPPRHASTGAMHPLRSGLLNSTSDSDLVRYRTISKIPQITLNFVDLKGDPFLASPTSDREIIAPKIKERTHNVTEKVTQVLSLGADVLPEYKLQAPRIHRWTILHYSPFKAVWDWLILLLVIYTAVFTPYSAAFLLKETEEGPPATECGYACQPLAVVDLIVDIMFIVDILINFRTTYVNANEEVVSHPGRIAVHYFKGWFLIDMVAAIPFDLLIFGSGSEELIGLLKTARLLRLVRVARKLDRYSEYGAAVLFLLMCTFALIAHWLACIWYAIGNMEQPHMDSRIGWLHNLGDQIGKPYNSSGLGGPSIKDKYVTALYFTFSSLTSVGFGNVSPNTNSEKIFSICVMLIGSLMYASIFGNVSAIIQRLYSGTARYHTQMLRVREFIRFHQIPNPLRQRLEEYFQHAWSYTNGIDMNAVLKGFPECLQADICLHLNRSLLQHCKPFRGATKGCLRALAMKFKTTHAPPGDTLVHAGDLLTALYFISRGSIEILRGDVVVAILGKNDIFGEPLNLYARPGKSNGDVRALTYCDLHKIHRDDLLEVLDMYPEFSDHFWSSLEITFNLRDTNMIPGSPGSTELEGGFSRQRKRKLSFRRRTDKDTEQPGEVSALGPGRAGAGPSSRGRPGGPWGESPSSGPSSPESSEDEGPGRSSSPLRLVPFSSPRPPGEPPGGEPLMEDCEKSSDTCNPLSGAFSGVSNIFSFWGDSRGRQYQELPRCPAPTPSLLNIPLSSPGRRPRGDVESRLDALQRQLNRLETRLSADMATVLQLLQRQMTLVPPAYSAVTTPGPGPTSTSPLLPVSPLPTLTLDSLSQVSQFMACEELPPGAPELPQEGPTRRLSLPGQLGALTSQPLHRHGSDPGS

[11] = Volume of distribution at steady state in iv dosed rat; type: ADME, organism-based; conditions: in vivo, read-out: Vdss
[12] = Tmax in po dosed rat; type: ADME, organism-based; conditions: in vivo
[13] = Clearance in iv dosed rat; type: ADME, organism-based; conditions: in vivo
[14] = target: 11-beta-hydroxysteroid dehydrogenase 1 (Homo sapiens, UniProt P28845); test: Inhibition of full-length human 11betaHSD1 expressed in HEK293 cells assessed as cortisol level by competitive ELISA; type: cell-based
11-beta-hydroxysteroid dehydrogenase 1 (Homo sapiens, UniProt P28845), sequence (P28845 whole entry): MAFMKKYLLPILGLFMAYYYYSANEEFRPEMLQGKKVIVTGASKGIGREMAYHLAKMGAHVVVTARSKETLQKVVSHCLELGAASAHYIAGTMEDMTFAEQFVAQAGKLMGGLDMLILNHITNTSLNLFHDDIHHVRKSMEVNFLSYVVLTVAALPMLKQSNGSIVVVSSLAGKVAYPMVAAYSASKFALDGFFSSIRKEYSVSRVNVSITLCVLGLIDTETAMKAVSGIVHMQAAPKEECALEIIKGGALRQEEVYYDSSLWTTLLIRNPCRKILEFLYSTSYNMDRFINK

[15] = test system: Mus musculus; test: Toxicity in db/db mouse assessed as sedative effect at 150 mg/kg, po after 13 days; type: organism-based; set-up: dose 150 mg/kg, route oral; conditions: in vivo, 312 h
[16] = Cmax in rat at 20 mg/kg, po; type: ADME, organism-based; set-up: dose 20 mg/kg, route oral; conditions: in vivo

11-beta-hydroxysteroid dehydrogenase 1 (Rattus norvegicus, UniProt P16232), sequence (P16232 whole entry): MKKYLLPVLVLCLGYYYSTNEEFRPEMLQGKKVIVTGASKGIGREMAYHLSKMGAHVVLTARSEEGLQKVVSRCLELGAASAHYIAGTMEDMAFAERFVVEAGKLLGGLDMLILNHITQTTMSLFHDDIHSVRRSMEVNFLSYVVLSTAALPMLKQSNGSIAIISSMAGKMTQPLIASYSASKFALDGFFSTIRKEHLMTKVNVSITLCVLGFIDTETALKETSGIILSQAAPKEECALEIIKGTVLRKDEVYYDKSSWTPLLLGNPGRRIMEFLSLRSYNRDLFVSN
Cytochrome P450 3A4, sequence (P08684 whole entry): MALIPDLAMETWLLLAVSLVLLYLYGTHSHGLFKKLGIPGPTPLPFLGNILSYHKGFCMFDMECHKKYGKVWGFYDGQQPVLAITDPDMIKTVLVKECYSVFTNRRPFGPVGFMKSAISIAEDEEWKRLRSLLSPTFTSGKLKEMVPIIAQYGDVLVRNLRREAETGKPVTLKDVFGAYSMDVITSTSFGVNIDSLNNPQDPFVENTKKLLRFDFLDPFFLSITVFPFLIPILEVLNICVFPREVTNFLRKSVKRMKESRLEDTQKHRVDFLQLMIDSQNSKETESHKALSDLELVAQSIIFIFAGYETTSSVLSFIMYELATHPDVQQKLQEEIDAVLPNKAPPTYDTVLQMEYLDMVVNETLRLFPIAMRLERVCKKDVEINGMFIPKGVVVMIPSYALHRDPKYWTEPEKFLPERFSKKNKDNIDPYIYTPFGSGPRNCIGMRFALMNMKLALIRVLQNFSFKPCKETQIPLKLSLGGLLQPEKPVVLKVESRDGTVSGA

| IC50 [1] [nM] | half-life [4] [h] | microsomal CLint at 1 µM [5] [µL/min/mg] | bioavailability [6] [%] | Papp [7] [×10⁻⁶ cm/s] | solubility kinetic [9] [µg/mL] | Vd [11] [L/kg] | Tmax [12] [h] | clearance [13] [mL/min/kg] | SMILES | further results |
| --- | --- | --- | --- | --- | --- | --- | --- | --- | --- | --- |
| > 5000 |  |  |  |  |  |  |  |  | Cn1c2c(c(=O)n1-c1ccccn1)[C@H]1CC[C@]2(C)C1(C)C |  |
| 41 |  |  |  |  |  |  |  |  | COc1cccc(-n2c(=O)c3c(n2C)[C@]2(C)CC[C@H]3C2(C)C)c1 |  |
| 13 | 0.8 | 582 | 35 | 11.2 | 82 (≈ 208 µM) | 1 | 2.3 | 29 | CC1(C)[C@@H]2CC[C@@]1(C)c1c2c(=O)n(-c2ccc(F)cc2F)n1Cc1ccccc1 | IC50 [2]: 6100 nM; Cmax [3]: 2280 ng/mL; inhibition (INH) [8]: 93%; IC20 [10]: > 30000 nM |
| 18 |  |  |  |  |  |  |  |  | CCn1c2c(c(=O)n1-c1ccccc1)[C@H]1CC[C@]2(C)C1(C)C |  |
| > 11000 |  |  |  |  |  |  |  |  | Cn1c2c(c(=O)n1-c1c(Cl)cccc1Cl)[C@H]1CC[C@]2(C)C1(C)C | IC50 [14]: > 22000 nM |
| 10 | 3 | 604 | 5 | 8.2 | 246 (≈ 675 µM) | 2 | 0.8 | 34.8 | Cn1c2c(c(=O)n1Cc1ccccc1C(F)(F)F)[C@H]1CC[C@]2(C)C1(C)C | IC50 [2]: 4800 nM; Cmax [3]: 294 ng/mL |
| 39 | 4.9 | 197 | 29 | 9.9 | > 625 | 2.7 | 1 | 29.3 | Cn1c2c(c(=O)n1-c1ccccc1Cl)[C@H]1CC[C@]2(C)C1(C)C | IC50 [2]: > 50000 nM; Cmax [3]: 2840 ng/mL; IC20 [10]: > 30000 nM |
| 10 | 1 | 68 | 109 | 10.9 | > 376 | 1.2 | 0.7 | 31.8 | Cn1c2c(c(=O)n1-c1ccccc1C(F)(F)F)[C@H]1CC[C@]2(C)C1(C)C | IC50 [2]: 22600 nM; Activity [15]: Toxic; inhibition (INH) [8]: 93%; Cmax [16]: 2150 ng/mL; IC20 [10]: > 30000 nM |
| > 11000 |  |  |  |  |  |  |  |  | COc1c2c(nn1-c1ccc(C)cc1)[C@]1(C)CC[C@H]2C1(C)C | IC50 [14]: > 22000 nM |
| 4 |  |  |  |  |  |  |  |  | Cn1c2c(c(=O)n1-c1cccc(I)c1)[C@H]1CC[C@]2(C)C1(C)C |  |
| 77 |  |  |  |  |  |  |  |  | Cn1c2c(c(=O)n1Cc1ccccc1)[C@H]1CC[C@]2(C)C1(C)C |  |
| 21 |  |  |  |  |  |  |  |  | Cc1ccccc1-c1cccc(Cn2c(=O)c3c(n2C)[C@]2(C)CC[C@H]3C2(C)C)c1 |  |
| 35 |  |  |  |  |  |  |  |  | C=CCn1c2c(c(=O)n1-c1ccccc1F)[C@H]1CC[C@]2(C)C1(C)C |  |
| 5 | 5.4 | 170 | 71 | 6.7 | 50 (≈ 142 µM) | 4.6 | 0.5 | 40.2 | Cn1c2c(c(=O)n1-c1cc(Cl)ccc1Cl)[C@H]1CC[C@]2(C)C1(C)C | IC50 [2]: > 25000 nM; Cmax [3]: 280 ng/mL; Activity [15]: Non-toxic; inhibition (INH) [8]: 93%; IC20 [10]: 51000 nM |
| 116 |  |  |  |  |  |  |  |  | Cn1c2c(c(=O)n1-c1ccccc1)[C@@H]1CC[C@@]2(C)C1(C)C |  |
| 12 |  |  |  |  |  |  |  |  | CC1(C)[C@@H]2CC[C@@]1(C)c1c2c(=O)n(-c2ccccc2F)n1Cc1ccccc1 |  |
| 16 | 0.9 | 645 | 29 | 8.8 | 171 (≈ 477 µM) | 2.3 | 3.2 | 57.5 | CC1(C)[C@@H]2CC[C@@]1(C)c1c2c(=O)n(-c2ccccc2)n1Cc1ccccc1 | Cmax [3]: 648 ng/mL |
| 138 | 1.2 | 3.6 | 9 | 9.7 | 169 (≈ 598 µM) | 1.4 | 0.5 | 25.7 | Cn1c2c(c(=O)n1-c1ccccc1)[C@H]1CC[C@]2(C)C1(C)C | IC50 [2]: > 50000 nM; Cmax [16]: 335 ng/mL |

| SMILES | IC50 [1] [nM] | half-life [4] [h] | microsomal CLint at 1 µM [5] [µL/min/mg] | bioavailability [6] [%] | Papp [7] [×10⁻⁶ cm/s] | solubility kinetic [9] [µg/mL] | Vd [11] [L/kg] | Tmax [12] [h] | clearance [13] [mL/min/kg] | further results |
| --- | --- | --- | --- | --- | --- | --- | --- | --- | --- | --- |
| CC1(C)[C@@H]2CC[C@@]1(C)c1c2c(=O)n(-c2ccc(F)cc2F)n1CCc1ccccc1 | 18 |  |  |  |  |  |  |  |  |  |
| CCCn1c2c(c(=O)n1-c1ccccc1F)[C@H]1CC[C@]2(C)C1(C)C | 110 |  |  |  |  |  |  |  |  |  |
| CC(C)n1c2c(c(=O)n1-c1ccccc1F)[C@H]1CC[C@]2(C)C1(C)C | 22 |  |  |  |  |  |  |  |  |  |
